# Assay results as given in publication PMC8708751, “Hit Identification of a Novel Quinazoline Sulfonamide as a Promising EphB3 Inhibitor: Design, Virtual Combinatorial Library, Synthesis, Biological Evaluation, and Docking Simulation Studies” (Pharmaceuticals, 2021).
# Read-outs that look alike come from different tables or passages of the source.
# What was measured:
# [1] = target: T1, EphB3 kinase (Homo sapiens, UniProt P54753); assay: EphB3 kinase inhibition assay (HotSpot); format: biochemical; settings: EphB3 kinase, 10 µM compound, 10 µM ATP; read-out: Average % Enzyme Inhibition at 10 µM (Relative to DMSO Control)
# T1 construct: purchased Reaction Biology Co. (Kinase HotSpot service)
# T1 sequence (P54753 34-998): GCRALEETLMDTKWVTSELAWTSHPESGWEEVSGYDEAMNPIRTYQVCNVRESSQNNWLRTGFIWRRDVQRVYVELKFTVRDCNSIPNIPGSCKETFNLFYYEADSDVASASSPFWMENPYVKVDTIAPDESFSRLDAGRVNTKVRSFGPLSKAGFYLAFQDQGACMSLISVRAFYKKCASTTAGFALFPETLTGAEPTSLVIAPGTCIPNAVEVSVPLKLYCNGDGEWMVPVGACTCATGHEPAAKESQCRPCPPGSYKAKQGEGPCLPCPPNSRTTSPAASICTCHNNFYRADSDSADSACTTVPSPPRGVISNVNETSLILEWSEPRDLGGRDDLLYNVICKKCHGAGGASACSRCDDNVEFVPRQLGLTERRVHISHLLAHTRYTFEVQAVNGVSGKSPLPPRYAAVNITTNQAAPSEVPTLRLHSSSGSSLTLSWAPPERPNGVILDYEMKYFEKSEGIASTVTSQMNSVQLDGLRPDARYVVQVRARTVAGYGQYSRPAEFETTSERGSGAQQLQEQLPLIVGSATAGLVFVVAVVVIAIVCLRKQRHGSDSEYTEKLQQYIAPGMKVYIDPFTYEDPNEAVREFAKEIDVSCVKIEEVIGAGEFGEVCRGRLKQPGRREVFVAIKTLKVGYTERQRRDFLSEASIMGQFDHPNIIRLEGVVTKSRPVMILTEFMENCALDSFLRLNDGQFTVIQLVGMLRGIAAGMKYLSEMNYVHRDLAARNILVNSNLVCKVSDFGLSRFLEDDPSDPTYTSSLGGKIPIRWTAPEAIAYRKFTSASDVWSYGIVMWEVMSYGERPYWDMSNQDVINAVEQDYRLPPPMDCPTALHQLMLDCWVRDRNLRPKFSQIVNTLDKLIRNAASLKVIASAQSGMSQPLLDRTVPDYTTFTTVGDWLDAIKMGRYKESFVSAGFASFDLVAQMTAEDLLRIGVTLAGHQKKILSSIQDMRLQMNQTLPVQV
# Experimental: The synthesized compounds were subjected to in vitro screening over EphB3 kinase. A single dose of 10 µM concentration of each target compound was used in EphB3 kinase inhibition assay, at 10 µM ATP, applying HotSpot^SM technology.
# The HotSpot assay platform contains specific kinase/substrate pairs along with required cofactors. Base reaction buffer: 20 mM Hepes (pH 7.5), 10 mM MgCl2, 1 mM EGTA, 0.02% Brij35, 0.02 mg/mL BSA, 0.1 mM Na3VO4, 2 mM DTT, 1% DMSO. The tested compounds were dissolved in 100% DMSO to specific concentration. The serial dilution was conducted by Integra Viaflo Assist in DMSO (Sigma-Aldrich, Burlington, MA, USA). The reaction mixture containing the examined compound and 33P-ATP was incubated at room temperature for 2 h, and radioactivity was detected by filter-binding method. Kinase activity data were expressed as the percent remaining kinase activity in test samples compared to vehicle (dimethyl sulfoxide) reactions. IC50 values and curve fits were obtained using Prism (GraphPad Software, San Diego, CA, USA).
# [2] = target: T2, EGFR kinase (Homo sapiens, UniProt P00533); assay: EGFR kinase inhibition assay (HotSpot); format: biochemical; settings: for inhibition at 10 µM / Average % Enzyme Inhibition (Relative to DMSO Controls) at 10 µM: 10 µM compound; for inhibition at 10 µM: 10 µM ATP as printed, read-out: Average % Enzyme Inhibition (Relative to DMSO Controls) at 10 µM; for Average % Enzyme Inhibition (Relative to DMSO Controls) at 10 µM: 10 M [sic] ATP
# T2 construct: purchased Reaction Biology Co. (Kinase HotSpot service)
# T2 sequence (P00533 25-1210): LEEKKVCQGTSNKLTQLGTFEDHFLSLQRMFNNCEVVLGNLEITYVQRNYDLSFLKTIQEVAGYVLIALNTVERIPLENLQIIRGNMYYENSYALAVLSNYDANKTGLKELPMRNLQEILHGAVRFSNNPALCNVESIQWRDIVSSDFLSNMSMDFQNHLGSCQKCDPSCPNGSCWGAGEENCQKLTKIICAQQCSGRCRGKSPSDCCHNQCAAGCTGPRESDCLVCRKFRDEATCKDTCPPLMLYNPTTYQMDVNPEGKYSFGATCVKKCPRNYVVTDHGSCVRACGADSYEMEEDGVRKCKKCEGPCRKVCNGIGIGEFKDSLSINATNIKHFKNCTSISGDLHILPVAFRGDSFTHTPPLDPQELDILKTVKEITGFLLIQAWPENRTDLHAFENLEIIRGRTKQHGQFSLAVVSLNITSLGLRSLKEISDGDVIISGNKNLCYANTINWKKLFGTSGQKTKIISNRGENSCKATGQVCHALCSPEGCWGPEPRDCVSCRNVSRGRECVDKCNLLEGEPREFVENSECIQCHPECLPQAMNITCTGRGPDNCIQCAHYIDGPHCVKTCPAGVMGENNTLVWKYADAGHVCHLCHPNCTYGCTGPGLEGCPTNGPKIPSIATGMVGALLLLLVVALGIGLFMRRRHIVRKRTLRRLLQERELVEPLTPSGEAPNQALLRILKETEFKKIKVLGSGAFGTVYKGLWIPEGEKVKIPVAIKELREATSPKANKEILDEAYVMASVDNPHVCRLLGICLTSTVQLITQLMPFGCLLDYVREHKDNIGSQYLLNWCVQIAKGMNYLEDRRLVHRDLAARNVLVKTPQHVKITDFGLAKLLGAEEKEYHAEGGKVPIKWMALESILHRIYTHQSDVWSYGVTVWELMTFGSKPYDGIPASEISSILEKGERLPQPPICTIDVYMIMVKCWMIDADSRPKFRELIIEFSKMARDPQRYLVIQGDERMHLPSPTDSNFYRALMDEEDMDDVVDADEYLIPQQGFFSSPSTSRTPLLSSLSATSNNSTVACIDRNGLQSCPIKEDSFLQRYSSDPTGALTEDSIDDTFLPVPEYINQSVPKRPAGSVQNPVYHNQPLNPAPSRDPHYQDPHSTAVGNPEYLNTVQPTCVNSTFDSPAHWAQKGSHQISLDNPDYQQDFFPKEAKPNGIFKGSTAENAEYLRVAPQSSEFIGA
# [3] = EGFR kinase, dose dependent assay, read-out: IC50
# [4] = EGFR, read-out: EC50 of the curve fit printed in Figure 6 (IC50 per legend)
Compound,inhibition at 10 µM [1],inhibition at 10 µM ([2]; EGFR kinase),melting point,Average % Enzyme Inhibition (Relative to DMSO Controls) at 10 µM ([2]; EGFR kinase),"IC50 [2, 3]","IC50 [2, 4]"
"NS(=O)(=O)c1ccc(Nc2ncnc3ccc(Br)cc23)cc1 [Compound 3a, 4-((6-Bromoquinazolin-4-yl)amino)benzenesulfonamide]",26.97 ± 0.24%,-13.2 ± 4.31%,322.2 to 324.5 °C,,,
"NS(=O)(=O)c1ccc(Nc2ncnc3cc(-c4ccc(CN5CCOCC5)cc4)ccc23)cc1 [Compound 4d, 4-((7-(4-(Morpholinomethyl)phenyl)quinazolin-4-yl)amino)benzenesulfonamide]",18.9 ± 1.09%,> 50%,228.1 to 229.8 °C,65.76 ± 0.98%,2.76 µM,2.76 µM
"NS(=O)(=O)c1ccc(Nc2ncnc3ccc(-c4ccc(C=O)o4)cc23)cc1 [Compound 4b, 4-((6-(5-Formylfuran-2-yl)quinazolin-4-yl)amino)benzenesulfonamide]",26.7 ± 0.45%,25.2 ± 1.25%,,,,
"NS(=O)(=O)c1cccc(Nc2ncnc3cc(-c4cccc(CN5CCOCC5)c4)ccc23)c1 [Compound 4e, 3-((7-(3-(Morpholinomethyl)phenyl)quinazolin-4-yl)amino)benzenesulfonamide]",-21.35 ± 0.09%,> 50%,267.5 to 269 °C,63.28 ± 0.21%,1.06 µM,1.06 µM

# Now from value to compound:
inhibition at 10 µM [1],inhibition at 10 µM ([2]; EGFR kinase),melting point,Average % Enzyme Inhibition (Relative to DMSO Controls) at 10 µM ([2]; EGFR kinase),"IC50 [2, 3]","IC50 [2, 4]",Compound
23.5 ± 5.36%,4.57 ± 2.16%,320 to 321.5 °C,,,,"NS(=O)(=O)c1cccc(Nc2ncnc3ccc(-c4cccnc4)cc23)c1 [Compound 4f, 3-((6-(Pyridin-3-yl)quinazolin-4-yl)amino)benzenesulfonamide]"
25.81 ± 0.24%,0.56 ± 4.32%,315.1 to 316.2 °C,,,,"NS(=O)(=O)c1ccc(Nc2ncnc3ccc(-c4cccnc4)cc23)cc1 [Compound 4a, 4-((6-(Pyridin-3-yl)quinazolin-4-yl)amino)benzenesulfonamide]"
